Experiment [1] addresses recombinant human PARP (Homo sapiens, UniProt P09874). The experiment in a line: PARP inhibitory activity (in vitro assay). Type of experiment: biochemical. The following applies: 32P-NAD, 15 minutes at room temperature. On the procedure:
B. PARP Inhibitory Activity (In Vitro Assay)
The recombinant human PARP (5.3 mg protein/ml) were incubated with a test compound in a 100 μl reaction buffer containing the indicated concentration of 1 mCi/ml ^32P-NAD, 50 mM Tris-HCl, 25 mM MgCl2, 1 mM DTT (dithiothreitol), 0.05 mM NAD (nicotinamido adenine dinucleotide), 1 mg/ml activated DNA, pH8.0. Incubation was for 15 minutes at a room temperature and the reaction was stopped by the addition of 200 μl of ice-cold 20% tricholoroacetic acid followed by rapid filtration through GF/B filters. The filters were treated with scintillation fluid and acid-insoluble counts were measured for quantification of unit activity.
PARP inhibitory activity (%)=[1-(enzyme activity with test compound)/(enzyme activity with vehicle)]×100

Experiment [2] relates to Mice MPTP(N-methyl-1,2,3,6-tetrahydropyridine)-induced Parkinson's model. The experiment in a line: Effect on the level of striatal dopamine and its metabolite in mice MPTP-induced Parkinson's model. In kind it is in vivo. The conditions noted are these: 32 mg/kg, two i.p. injections, four days after last MPTP, *P < 0.05 vs MPTP. As to the method: C. Effect of Test Compound on the Level of Striatal Dopamine and its Metabolite in Mice MPTP([…])-induced Parkinson's model
Mice received four i.p. injections of MPTP-HCl (20 mg/kg) in saline at 2 hours intervals and two i.p. injections of Test compound at 30 minutes before 1st injection and 3rd injection of MPTP.
Four days after the last MPTP injection, mice were sacrificed, brains were quickly removed, and striata were dissected out on an ice-cold glass Petri dish. Samples were homogenized in a buffer of 0.1M perchloric acid containing isoproterenol as internal standard. HPLC with electrochemical detection was used to measure striatal levels of DA (dopamine), DOPAC (dihydroxyphenylacetic acid) and HVA (homovanilic acid).
The level of DA, DOPAC and HVA were expressed as a percentage of Normal taken as the 100%.

A value given as a limit tells only on which side of the number the result lay.

Chain of recombinant human PARP (P09874 whole entry): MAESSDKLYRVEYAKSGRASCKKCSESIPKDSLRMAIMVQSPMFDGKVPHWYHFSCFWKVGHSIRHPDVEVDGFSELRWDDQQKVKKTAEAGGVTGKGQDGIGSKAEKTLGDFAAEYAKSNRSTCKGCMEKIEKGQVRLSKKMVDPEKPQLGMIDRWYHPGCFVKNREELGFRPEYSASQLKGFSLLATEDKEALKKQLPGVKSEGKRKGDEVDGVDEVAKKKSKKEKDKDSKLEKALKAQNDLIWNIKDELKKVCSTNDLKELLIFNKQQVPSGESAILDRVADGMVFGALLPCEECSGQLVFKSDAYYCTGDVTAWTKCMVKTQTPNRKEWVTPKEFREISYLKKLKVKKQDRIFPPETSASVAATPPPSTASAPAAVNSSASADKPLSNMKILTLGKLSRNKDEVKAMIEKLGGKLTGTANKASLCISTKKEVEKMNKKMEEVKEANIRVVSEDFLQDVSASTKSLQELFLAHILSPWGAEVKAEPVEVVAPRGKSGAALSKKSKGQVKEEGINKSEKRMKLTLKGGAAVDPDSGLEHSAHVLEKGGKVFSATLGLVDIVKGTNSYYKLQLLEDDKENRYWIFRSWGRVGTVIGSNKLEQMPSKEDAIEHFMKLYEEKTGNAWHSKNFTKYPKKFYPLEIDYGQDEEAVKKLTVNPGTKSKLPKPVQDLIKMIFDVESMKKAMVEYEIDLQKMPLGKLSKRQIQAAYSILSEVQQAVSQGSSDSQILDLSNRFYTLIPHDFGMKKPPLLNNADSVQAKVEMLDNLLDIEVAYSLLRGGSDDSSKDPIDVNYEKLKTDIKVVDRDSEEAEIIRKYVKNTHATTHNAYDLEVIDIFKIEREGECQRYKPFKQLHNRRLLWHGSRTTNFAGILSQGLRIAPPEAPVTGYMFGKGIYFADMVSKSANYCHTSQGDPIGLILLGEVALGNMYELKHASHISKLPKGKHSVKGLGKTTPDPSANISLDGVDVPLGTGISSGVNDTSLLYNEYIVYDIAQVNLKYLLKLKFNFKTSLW

As for `O=c1[nH]c(CCCN2CC=C(c3ccccc3)CC2)nc2cccc(Cl)c12` [Compound A, 5-chloro-2-[3-(4-phenyl-3,6-dihydro-1(2H)-pyridinyl)propyl]-4(3H)-quinazolinone], the IC50 (in general, the midpoint of a concentration-inhibition curve) in experiment [1] was less than 500 nM. Besides, the Dopamine levels in experiment [2] (striatal DA as percentage of Normal (100%)) is 59* %. Besides, the DOPAC levels in experiment [2] (striatal DOPAC as percentage of Normal (100%)) is on record as 58* %. Also, the HVA levels in experiment [2] (striatal HVA as percentage of Normal (100%)) is given as 64* %.
For the molecule `O=c1[nH]c(/C=C/CN2CC=C(c3ccc(F)cc3)CC2)nc2c(Cl)cccc12` [Compound B, 8-chloro-2-{(1E)-3-[4-(4-fluorophenyl)-3,6-dihydro-1(2H)-pyridinyl]-1-propenyl}-4(3H)-quinazolinone], the IC50 in experiment [1] was less than 500 nM.
Take `O=c1[nH]c(CCCN2CC=C(c3ccncc3)CC2)nc2c(Cl)cccc12` [Compound C, 8-Chloro-2-{[4-(4-pyridinyl)-3,6-dihydro-1(2H)-pyridinyl]propyl}-4(3H)-quinazolinone]: in experiment [1], the concentration for half-maximal inhibition (IC50) was less than 500 nM.
In the case of `Cc1cccc2c(=O)[nH]c(CCCN3CCc4c([nH]c5ccccc45)C3)nc12` [Compound D, 8-methyl-2-[3-(1,3,4,9-tetrahydro-2H-pyrido[3,4-b]indol-2-yl)propyl]-4(3H)-quinazolinone], in experiment [1], the 50% inhibitory concentration (IC50) was less than 500 nM.

For the origin of these results see patent US20040077667A1, “Quinazolinone derivatives” (priority 2000, published 2004).
